Entries after “also recorded” stand apart in the source; their conditions may differ.
How the values were obtained:
bFGF = test: Multiplex ELISA of HMEC media: bFGF; assay type: cell-based, human; details: compound-treated HMECs, 16 hours
Description: (§1) Dermal-derived Human Microvascular Endothelial Cells (HMEC) were maintained at 37° C./5% CO2 in MCDB-131 medium (Gibco/cat: 10372) supplemented with 10% FCS, L-Glutamine (Gibco/cat: 25030-032), 1 μl/ml Hydrocortisone (Sigma/cat: H0396), 10 ng/ml EGF (BD Biosciences 354001) and 1% Pen-Strep (Gibco/cat: 151040-148). The wells of a μ-slide angiogenesis plate (IBIDI Cat no: 81506) were coated with a layer of matrigel matrix (BD 356234) which was left to polymerize for 45 minutes at 37° C. HMECs were grown to 80% confluence, washed with DPBS (Invitrogen) and trypsinised using 2 ml TrypLE™ Express (1×) (Invitrogen). Cells were centrifuged following flask detachment at 1200 rpm for 4 minutes. The cell pellet was resuspended in 3 ml full media and a cell count was performed using a haemocytometer. 7.5×10^3 cells were pipetted into each matrigel coated well of the μ-slide angiogenesis plate and treated with either 0.1% DMSO or 1, 3.16 or 10 μM compound 4 or compound 18. The slide was kept at 37° C./5% CO2 during cell tube formation. After 16 hours, 50 μl of media was removed from each of the Ibidi wells and 25 μl of the media was run in each well of a Meso Scale Discovery (MD, USA) custom multiplex ELISA containing the following analytes: Ang-1, Ang-2, VEGF, bFGF, PAI-1, sICAM and sVCAM. The ELISA was run as per manufacturer's instructions.

VEGF = test: Multiplex ELISA of HMEC media: VEGF; assay type: cell-based, human; details: compound-treated HMECs, 16 hours
Description: as §1

PAI-1 = test: Multiplex ELISA of HMEC media: PAI-1; assay type: cell-based, human; details: compound-treated HMECs, 16 hours
Description: as §1

[1] = test system: human endothelial (HMEC) cells; test: MTT cell viability assay in HMEC; assay type: cell-based; details: 10 μM, 24 hours
Description: A 3-(4,5-dimethylthiozol-2-yl)-2,5-diphenyltetrazolium bromide (MTT) dye reduction assay was carried out to determine the cytotoxicity of each compound on either human microvascular endothelial cells (HMECs) or human retinal pigmented epithelium cells (ARPE-19). Cells were maintained in a 95% air and 5% CO2 atmosphere at 37° C. in Dulbecco modified Eagle medium (DMEM, Sigma Aldrich) with 10% fetal bovine serum, 2 mM Gibco® L-glutamine and 100 units/ml penicillin, 1 mg/ml streptomycin (Invitrogen) supplementation. On day 1, cells were trypsinized (Trypsin-EDTA 1×) and seeded 1.4×10^4 cells per well of a 96 well plate and incubated overnight. On day 2, cells were serum staved in DMEM with L-glutamine and penicillin-streptomycin supplementation for 24 h. On day 3, cells were drug treated for 24 h (HMECs) or 96 h (ARPE-19 cells) with 0.1% DMSO or 10 μM to 90 μM of each compound 4, 8, 15, 18 or 20, with 4 replicate wells of each compound. After 24-96 h, cells were incubated with […] 5 mg/ml MTT labelling Reagent (Roche) for 2 h. Subsequently, when purple formazan crystals formed cells were incubated with 1× solubilisation solution (Roche) for 4 h and absorbance read at 570 nm using a microplate reader.

human HT29-Luc2 cells = test: Clonogenic assay of cell viability in HT29-Luc2; assay type: cell-based; details: 10 μM, 24-96 hours
Description: HT29-Luc2 CRC cells were maintained using McCoy's 5A (Gibco 36600-088) medium supplemented with 10% FBS (Gibco 10270-106) at 37° C./5% CO2. Cells were washed in DPBS and trypsinised using 2 ml TrypLE™ Express (1×) (Invitrogen). Cells were centrifuged following detachment at 1200 rpm for 4 minutes. The cell pellet was resuspended in full media and a cell count was performed using a haemocytometer. 1.5×10^3 cells were seeded per well of a 6 well plate and left to adhere for 24 hours. Cells were then treated with 10 μM of compound 4 or 18 for 24 hours. The drugs were then removed and cells were allowed to grow in fresh media for 10 days in total, clones were then fixed using 4% paraformaldehyde and stained by incubating with 0.5% crystal violet solution (Pro-Lab diagnostics PL.7000) at RT for 2 hours. Clones counting was performed using the ColCount™ system (Oxford Optronix).

[2] = test system: human microvascular endothelial cells (HMECs); test: In vitro tubule formation in human microvascular endothelial cells; assay type: cell-based; details: 1, 3.16 and 10 μM, 16 hours, HMEC on matrigel
Description: as §1, with “the cells were imaged by phase contrast microscopy using the Zeiss Axiovert 200 M microscope. Total tubule length” for “50 μl of media”, “quantified using Zeiss Axiovision image analysis software. Calcein AM stain (C3099 Invitrogen) was prepared at 2 μg/ml final concentration” for “removed from each of the Ibidi wells”, “incubated with HMEC cells” for “25 μl of the media was run in each well of a Meso Scale Discovery (MD, USA) custom multiplex ELISA containing the”, “tubule formation for 30 minutes at 37° C. […]” for “analytes: Ang-1, Ang-2, VEGF, bFGF, PAI-1, sICAM and sVCAM. The ELISA was run as per manufacturer's instructions.”

sICAM-1 = test: Multiplex ELISA of HMEC media: sICAM-1; assay type: cell-based, human; details: compound-treated HMECs, 16 hours
Description: as §1

sVCAM-1 = test: Multiplex ELISA of HMEC media: sVCAM-1; assay type: cell-based, human; details: compound-treated HMECs, 16 hours
Description: as §1

Ang-1 = test: Multiplex ELISA of HMEC media: Ang-1; assay type: cell-based, human; details: compound-treated HMECs, 16 hours
Description: as §1

Ang-2 = test: Multiplex ELISA of HMEC media: Ang-2; assay type: cell-based, human; details: compound-treated HMECs, 16 hours
Description: as §1

Row | SMILES | expression of bFGF (bFGF) | expression of VEGF (VEGF) | expression of PAI-1 (PAI-1) | cell viability (MTT assay) [1] | cell viability in a clonogenic assay (human HT29-Luc2 cells) | tubule formation (total tubule length) [2] | expression of sICAM-1 (sICAM-1) | expression of sVCAM-1 (sVCAM-1) | expression of Ang-1 (Ang-1) | expression of Ang-2 (Ang-2) | expression of PAI-1 (PAI-1; hydrochloride) | tubule formation (total tubule length) ([2]; hydrochloride) | expression of Ang-2 (Ang-2; hydrochloride)
1 | Oc1ccccc1C#Cc1cnccn1 [Compound 18, 2-[2-(Pyrazin-2-yl)ethynyl]phenol] | not significantly different to control-treated HMECs | not significantly different to control-treated HMECs | significantly reduce; also recorded: reduce expression of Ang-2 and PAI-1 in human endothelial microvascular cells in a statistically significant manner | does not affect cell viability | does not affect cell viability | significantly reduce tubule formation; also recorded: inhibit in vitro tubule formation in a statistically significant manner | not significantly different to control-treated HMECs | not significantly different to control-treated HMECs | not significantly different to control-treated HMECs | significantly reduce; also recorded: reduce expression of Ang-2 and PAI-1 in human endothelial microvascular cells in a statistically significant manner |  |  | 
2 | Cl.Oc1ccccc1/C=C/c1cnccn1 [Compound 4, (E)-2-[2-(Pyrazin-2-yl)vinyl]phenol hydrochloride] | not significantly different to control-treated HMECs | not significantly different to control-treated HMECs |  | does not affect cell viability | does not affect cell viability |  | not significantly different to control-treated HMECs | not significantly different to control-treated HMECs | not significantly different to control-treated HMECs |  | significantly reduce; also recorded: reduce expression of Ang-2 and PAI-1 in human endothelial microvascular cells in a statistically significant manner | significantly reduce tubule formation; also recorded: inhibit in vitro tubule formation in a statistically significant manner | significantly reduce; also recorded: reduce expression of Ang-2 and PAI-1 in human endothelial microvascular cells in a statistically significant manner
